Values of other authors, collected in patent EP3142678B1, “USE OF CRANBERRY PROANTHOCYANIDINS WITH HERBAL COMPONENTS FOR TREATING AND PREVENTING URINARY TRACT INFECTIONS” (Specchiasol S.r.l., priority 2014, dated 2015).
Where two headings read alike, the source gives them in different places.

Tested on: slime-producing uropathogenic Escherichia coli strains
Conditions: for percentage of residual slime relative to the control: range over four strains; for reduced biofilms: fosfomycin 2000 mg/l

Structure (SMILES) | percentage of residual slime relative to the control (0.007 mg/ml of NAC) | percentage of residual slime relative to the control (8 mg/ml of NAC) | remaining exopolysaccharide matrix, of the amount found with the untreated control (pre-formed biofilms, NAC at the highest concentrations used) | reduced biofilms (initial (5 h) biofilms) | reduced biofilms (mature (48 h) biofilms)
CC(=O)N[C@@H](CS)C(=O)O [NAC, N-Acetylcysteine] | 62.5-100% | 26.2-64.1% | 25-68% |  | 
C[C@@H]1O[C@@H]1P(=O)(O)O [fosfomycin] |  |  |  | 40-57% | 41-49%
